Assay results reported in patent publication US12213485B2, “Synergistic methods of using benzoxaborole compounds and preservative gases as an antimicrobial for crops” (AGROFRESH INC., priority 2016, dated 2025).

Key:
[1] = test system: Aspergillus brasiliensis (ASPEBR); assay: In vitro fungal growth on inoculated agar plates, benzoxaborole and CO2 chamber treatment; type: cell-based
Source text: (§1) The following experiments were used to determine synergy between benzoxaborole Compounds A, B, and/or C and preservative gases, such as carbon dioxide (CO2) and sulfur dioxide (SO2). Specific rates or any other unique conditions are noted within the corresponding results tables. Each experiment comprised an air-tight 36 liter (L) chamber (Fisher Scientific, P/N: 08-642-23C), fitted with a bulkhead septum port (Swagelok, P/N: SS-400-61, Solon, OH) used for treatment delivery, as well as for monitoring (using needle extraction) carbon dioxide (CO2), sulfur dioxide (SO2), oxygen (O2) or other headspace samples. A variable speed fan (Thermaltake, Mobile Fan II, P/N: A1888, Taipei City, Taiwan) set to low was also used to circulate the headspace atmosphere.
(§2) In vitro and in vivo experiments were performed concurrently in triple replicates (i.e., triplicate) unless otherwise noted. For in vitro experiments, a single 6-well microtiter plate or three, 10-cm petri plates each containing half strength Potato Dextrose Agar were prepared. Each well or plate was inoculated with 1 microliter (μL) of 1×10^5 spores/ml of the appropriate pathogenic spore suspension (e.g., Botrytis cinerea, BOTRCI; Penicillium expansum, PENIEX; Mucor piriformis, MUCOPI; Fusarium sambucinum FUSASA; or Aspergillus brasiliensis, ASPEBR). The inoculated microtiter or petri plates were then sealed with a breathable film (AeraSeal; P/N: B-100, Excel Scientific, Victorville, CA).
(§3) For treatment, the inoculated agar plates and clamshells containing fruits (e.g., strawberries and grapes) were placed inside a 36 L experimental chamber unit, which was then sealed prior to commencement of compound treatments. The chamber remained sealed throughout the duration of the experiment except for addition of treatment to the chamber, and post-treatment ventilation.
(§4) Benzoxaborole Compound A or Compound B was dissolved in acetone and dispensed onto a 60 mm Whatman #1 filter paper disk using a pipette. The acetone was permitted to evaporate for five minutes before the disk was placed on a watch glass in each chamber.
(§5) A 12% CO2 headspace treatment was then established in the chamber by permitting 10 grams (g) of crushed dry ice placed in a weigh boat in the chamber to evaporate in the sealed chamber. However, the bulkhead port of the chamber was loosened to permit the release of internal pressure. Optionally, a fan was used during the initial hours of treatment (i.e., up to about 6 hours of treatment) to ensure uniform treatment exposure of fruits and plates.
(§6) Untreated controls and CO2 treated chambers contained an acetone-treated disk with similar evaporation for five minutes. CO2 and O2 levels in the chamber were monitored using a handheld gas detector (Dansensor Checkpoint II; P/N 600111, Ringsted, Denmark). Temperature and relative humidity were also monitored within the chamber using data loggers (Onset HOBO; P/N U12-013, Bourne, MA).
(§7) The chamber for all in vitro and in vivo experiments was held at room temperature (i.e., from about 21° C. to about 23° C.) typically for about 3.5 days (i.e., about 84 hours) of treatment exposure. Chambers were then vented. After an additional 2-3 days with the chamber at room temperature, post-treatment radial growth (in mm) of each in vitro pathogen (see Examples 1-7, Tables 1-7) was measured on the inoculated plates using electronic calipers (Mitutoyo, P/N: CD-6-CX, Aurora, IL). In addition, the point of inoculation on fruits was assessed for indication of in vivo disease incidence (e.g., yes or no) and severity of disease incidence (see Examples 8-16, Tables 8-16). Disease severity was rated on a scale ranging from 0 to 4, where “0” indicated no disease severity, “1” indicated minimal disease severity, “2” indicated medium disease severity, “3” indicated high disease severity, and “4” indicated exceptionally high disease severity. […]

[2] = test system: Botrytis cinerea (BOTRCI); assay: as above; type: cell-based
Source text: as §1, §2, §3, §4, §5, §6, §7

[3] = test system: Fusarium sambucinum (FUSASA); assay: as above; type: cell-based
Source text: as §1, §2, §3, §4, §5, §6, §7

[4] = test system: Mucor piriformis (MUCOPI); assay: as above; type: cell-based
Source text: as §1, §2, §3, §4, §5, §6, §7

[5] = test system: Penicillium expansum (PENIEX); assay: as above; type: cell-based
Source text: as §1, §2, §3, §4, §5, §6, §7

[6] = test system: Mucor piriformis (MUCOPI) on strawberries; assay: In vivo disease severity on wound-inoculated strawberries, benzoxaborole and CO2 chamber treatment
Source text: as §1
For in vivo experiments, eight strawberry fruits per repetition were surface sterilized with a 70% ethanol solution. After sterilization, the strawberries were rinsed twice with deionized water. Each strawberry fruit was wounded using a T15 screwdriver tip to a uniform depth of eight mm (8 mm). Each fruit wound was inoculated with 20 μL of 1×10^5 spores/ml pathogen spore suspension of B. cinerea or M. piriformis. The strawberries were then placed with the stem facing downwards inside a 1-pound strawberry clamshell.
as §3, §4, §5, §6, §7

[7] = Table 5, compound 0.14 mg/L + 12% CO2, Colby equation E=x+y−x*y/100
[8] = Table 5, compound 0.14 mg/L + 12% CO2, evaluated 2 days after treatment, 6-well plate, fan first 6 hours, >90% R.H.
[9] = Table 5, compound alone 0.14 mg/L, evaluated 2 days after treatment, 6-well plate, fan first 6 hours, >90% R.H.
[10] = Table 1, compound 0.14 mg/L + 12% CO2, Colby equation E=x+y−x*y/100
[11] = Table 1, compound 0.14 mg/L + 12% CO2, evaluated 2 days after treatment completion, 6-well microtiter plate, 4 replicates, fan first 6 hours
[12] = Table 1, compound alone 0.14 mg/L, evaluated 2 days after treatment completion, 6-well microtiter plate, 4 replicates, fan first 6 hours
[13] = Table 3, compound 0.14 mg/L + 12% CO2, Colby equation E=x+y−x*y/100
[14] = Table 3, compound 0.14 mg/L + 12% CO2, evaluated 2 days after treatment, 6-well microtiter plate, fan first 6 hours, >90% R.H.
[15] = Table 3, compound alone 0.14 mg/L, evaluated 2 days after treatment, 6-well microtiter plate, fan first 6 hours, >90% R.H.
[16] = Table 4, compound 0.14 mg/L + 12% CO2, Colby equation E=x+y−x*y/100
[17] = Table 4, compound 0.14 mg/L + 12% CO2, evaluated 2 days after treatment completion, 6-well microtiter plate, fan first 6 hours
[18] = Table 4, compound alone 0.14 mg/L, evaluated 2 days after treatment completion, 6-well microtiter plate, fan first 6 hours

SMILES: OB1OCc2cc(F)ccc21 [Compound A]
- Colby Calculation [1, 7]: 108.3
- Growth (diameter, mm) Cmpd + 12% CO2 [1, 8]: 0.0 mm
- Growth (diameter, mm) Cmpd [1, 9]: 2.6 mm
- Colby Calculation [2, 10]: 165.4
- Growth (diameter, mm) Cmpd + 12% CO2 [2, 11]: 0.0 mm
- Growth (diameter, mm) Cmpd [2, 12]: 16.3 mm
- Colby Calculation [2, 13]: 101.2
- Growth (diameter, mm) Cmpd + 12% CO2 [2, 14]: 4.5 mm
- Growth (diameter, mm) Cmpd [2, 15]: 5.5 mm
- Colby Calculation [2, 16]: 104.3
- Growth (diameter, mm) Cmpd + 12% CO2 [2, 17]: 0.0 mm
- Growth (diameter, mm) Cmpd [2, 18]: 1.5 mm
- Colby Calculation [2, 7]: 102.9
- Growth (diameter, mm) Cmpd + 12% CO2 [2, 8]: 3.0 mm
- Growth (diameter, mm) Cmpd [2, 9]: 3.6 mm
- Colby Calculation ([2]; Table 6, compound 0.14 mg/L + 12% CO2, Colby equation E=x+y−x*y/100): 108.2
- Growth (diameter, mm) Cmpd + 12% CO2 ([2]; Table 6, compound 0.14 mg/L + 12% CO2, evaluated 3 days after treatment, 10 cm petri plates, fan continuous): 6.4 mm
- Growth (diameter, mm) Cmpd ([2]; Table 6, compound alone 0.14 mg/L, evaluated 3 days after treatment, 10 cm petri plates, fan continuous): 13.2 mm
- Colby Calculation [3, 7]: 104.0
- Growth (diameter, mm) Cmpd + 12% CO2 [3, 8]: 3.8 mm
- Growth (diameter, mm) Cmpd [3, 9]: 5.0 mm
- Colby Calculation [4, 13]: 189.0
- Growth (diameter, mm) Cmpd + 12% CO2 [4, 14]: 11.0 mm
- Growth (diameter, mm) Cmpd [4, 15]: 22.3 mm
- Colby Calculation [5, 10]: 225.0
- Growth (diameter, mm) Cmpd + 12% CO2 [5, 11]: 3.3 mm
- Growth (diameter, mm) Cmpd [5, 12]: 17.0 mm
- Colby Calculation ([5]; Table 2, compound 0.14 mg/L + 12% CO2, Colby equation E=x+y−x*y/100): 119.7
- Growth (diameter, mm) Cmpd + 12% CO2 ([5]; Table 2, compound 0.14 mg/L + 12% CO2, evaluated 2 days after treatment, 6-well microtiter plate, fan first 6 hours, >90% R.H.): 5.2 mm
- Growth (diameter, mm) Cmpd ([5]; Table 2, compound alone 0.14 mg/L, evaluated 2 days after treatment, 6-well microtiter plate, fan first 6 hours, >90% R.H.): 9.7 mm
- Colby Calculation [5, 16]: 124.4
- Growth (diameter, mm) Cmpd + 12% CO2 [5, 17]: 0.5 mm
- Growth (diameter, mm) Cmpd [5, 18]: 6.4 mm
- Colby Calculation [5, 7]: 102.5
- Growth (diameter, mm) Cmpd + 12% CO2 [5, 8]: 8.6 mm
- Growth (diameter, mm) Cmpd [5, 9]: 10.2 mm
- Colby Calculation ([5]; Table 7, compound 0.035 mg/L + 12% CO2, Colby equation E=x+y−x*y/100): 114.7
- Growth (diameter, mm) Cmpd + 12% CO2 ([5]; Table 7, compound 0.035 mg/L + 12% CO2, evaluated 3 days after treatment, 10 cm Petri plates, fan continuous): 4.7 mm
- Growth (diameter, mm) Cmpd ([5]; Table 7, compound alone 0.035 mg/L, evaluated 3 days after treatment, 10 cm Petri plates, fan continuous): 10.6 mm
- Colby Calculation ([6]; Table 10, compound 0.14 mg/L + 12% CO2, Colby equation E=x+y−x*y/100): 106.8
- Growth (Severity, 0 to 4) Cmpd + 12% CO2 ([6]; Table 10, compound 0.14 mg/L + 12% CO2, evaluated 2 days after treatment, fan first 6 hours, >90% R.H.): 0.2
- Growth (Severity, 0 to 4) Cmpd ([6]; Table 10, compound alone 0.14 mg/L, evaluated 2 days after treatment, fan first 6 hours, >90% R.H.): 0.5
